Consider five compounds from patent publication US20240209028A1, “CNP COMPOUNDS” (priority 2022, published 2024).

Common to all, as to type: physicochemical
The nature of data set [1]: Solubility of CNP compounds at pH 4.0 and pH 6.5. An outline of the steps: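 Supernatant peptide concentration was quantified by CAD after overnight room-temperature equilibration of incompletely dissolved samples. Nominal loading was ≥4000-5000 nmol/mL. Media were pH 4.0 sodium acetate 5 mM/glycerol 250 mM, or pH 6.5 sodium phosphate 8 mM/glycerol 23 mg/mL reached by stepwise NaOH addition.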

Data set [2] in a line: Thioflavin T (ThT) assay: lagtime and peptide recovery. The settings on record: assay terminated after 45 hours; for LagTime (h) at pH 6.5: ThT assay, pH 6.5, 37° C. From the text:
The ThT assay was used to evaluate physical stability of the CNP compounds and their suitability for liquid formulation. Low physical stability of peptides may lead to amyloid fibril formation, which is observed as well-ordered, thread-like macromolecular structures in the sample eventually resulting in gel formation. This has traditionally been tested by visual inspection of the sample. However, that kind of measurement is very subjective and depending on the observer. Therefore, the application of a small molecule indicator probe is much more advantageous. Thioflavin T (ThT) is such a probe and has a distinct fluorescence signature when binding to fibrils [Naiki et al. (1989) Anal. Biochem. 177, 244-249; LeVine (1999) Methods. Enzymol. […], 274-284].
Procedure: Thioflavin T was added to the supernatant samples from Example 5 (pH 4.0 and 6.5) using an aqueous ThT stock solution to a final concentration of about 1 μM in the samples. Sample aliquots of 150 μL were placed in a 96 well microtiter plate (Packard OptiPlate™-96, white polystyrene). Usually, two to three replicas of each sample were applied to the plate. The plate was sealed and placed in a fluorescence plate reader (Fluoroskan Ascent FL) and incubated at 37° C. with orbital shaking (960 rpm; 1 mm amplitude). Fluorescence measurements were performed every 20 minutes using excitation through a 444 nm filter and measurement of emission through a 485 nm filter. Between each measurement, the plate was shaken and heated as described above and the assay was terminated after 45 hours. Fluorescence measurements for each microtiter plate well were plotted against time and the lag-time (time until an increase in ThT fluorescence was observed) was estimated.
To assess loss of dissolved peptide following 45h incubation, peptide recovery was measured as the ratio between total peak area after incubation vs. before incubation using the RP-UPLC method described below.
Measurement of LagTime and Peptide recovery % using RP-UPLC: RP-UPLC was conducted using an Acquity UPLC BEH C18 1.7 μm (2.1×30 mm) Waters column (Eluent A: 0.1% v/v % TFA in water; Eluent B: 0.1% v/v TFA in acetonitrile/water 4:1) with gradient elution (0 min: 95% A; 2 min: 20% A; 2.3 min: 20% A; 2.4 min: 95% A; 9 min: 95% A) in a flow rate of 0.9 mL/min and a column temperature of 30° C. UV-detection at 215 nm was used to assess the total peptide area.
Samples at pH 4.0 were prepared as described in Example 5 and subjected to the ThT assay as described above.
Samples at pH 6.5 were prepared as described in Example 5 and subjected to the ThT assay as described above.

Data set [3] in a line: High-Molecular-Weight-Protein (HMWP) formation by SEC-UPLC. The following applies: increase over two weeks at 37° C. The protocol:
In order to assess the propensity of CNP compounds to form covalent dimers or oligomers when formulated the High-Molecular-Weight-Protein content of CNP compound formulations at pH 4.0 and 6.5 were determined.
Procedure: The relative amount of covalent HMWP was assessed using SEC-UPLC. SEC-UPLC was conducted using a Waters UPLC Protein BEH SEC column, 125A, 4.6×150 mm, 1.7 μm, with isocratic elution (0.3 M NaCl, 10 mM NaH2PO4 and 5 mM H3PO4, 50% (v/v) isopropanol, pH 2.4) with a flow rate of 0.3 mL/min, a column temperature at 50° C. with UV-detection at 215 nm. The total area of peaks eluting prior to the monomeric main peak was termed HMWP and given on a percentage scale relative to the total peptide peak area.
Results: HMWP Formation Following 2-Weeks Quiescent Incubation at 37° C.: Samples at pH 4.0 were prepared as described in Example 5 and the amount of HMWP was determined as described above. Samples were incubated for two weeks at 37° C. and the amount of HMWP was determined again. The increase in HMWP over two weeks incubation at 37° C. are reported in Table 10 (in case the incubation period deviated from two weeks the increase in HMWP was normalized to two weeks assuming a constant formation rate).
Samples at pH 6.5 were prepared as described in Example 5 and the amount of HMWP was determined as described above. Samples were incubated for two weeks at 37° C. and the amount of HMWP was determined again. The increase in HMWP over two weeks incubation at 37° C. are reported in Table 11 (in case the incubation period deviated from two weeks the increase in HMWP was normalized to two weeks assuming a constant formation rate).
A general note: SEC sorts molecules by how far they enter the pores of the column.

[4] abbreviates: 8 mM sodium phosphate, 23 mg/mL glycerol, pH 6.5, room temperature, read-out: Solubility at pH 6.5.
Setting [5] is: 5 mM sodium acetate, 250 mM glycerol, pH 4.0, room temperature, read-out: Solubility at pH 4.0.

Values after ≈ are worked out from the molar mass of the structure shown. Read-outs that look alike come from different tables or passages of the source. Starred links: 1 amine or outer side, 2 acyl side, 3 side chain; linkers in the order of their positions; H or OH if unused. Positions of bridges follow the written chain, without caps; N, C: chain ends. Residues, ends and D or L forms follow the SMILES beside them. *: point of attachment. C18 diacid = O=C(O)CCCCCCCCCCCCCCCCC(=O)*; γGlu = O=C(O)[C@H](CCC(=O)[*:2])N[*:1]; AEEA = NCCOCCOCC(=O)O

For orientation: solubility means how much of the substance goes into solution per volume. On to `CC[C@H](C)[C@@H]1NC(=O)[C@H](CCCNC(=N)N)NC(=O)[C@H](CC(=O)O)NC(=O)[C@H](CC(C)C)NC(=O)[C@@H]2CCCN2C(=O)[C@H](CC(C)C)NC(=O)CNC(=O)[C@H](Cc2ccccc2)NC(=O)[C@@H](NC(=O)CNC(=O)[C@H](CO)NC(=O)[C@H](CO)NC(=O)[C@@H](NC(=O)CNC(=O)[C@@H](NC(=O)[C@H](CCCCN)NC(=O)[C@H](CCC(N)=O)NC(=O)[C@H](C)NC(=O)CNC(=O)[C@H](Cc2c[nH]cn2)NC(=O)[C@H](Cc2ccc(O)cc2)NC(=O)COCCOCCNC(=O)COCCOCCNC(=O)COCCOCCNC(=O)CC[C@H](NC(=O)CCCCCCCCCCCCCCCCC(=O)O)C(=O)O)[C@@H](C)O)C(C)C)CSSC[C@@H](C(=O)O)NC(=O)CNC(=O)[C@H](CC(C)C)NC(=O)CNC(=O)[C@H](CO)NC(=O)[C@H](CC(C)C)NC(=O)[C@H](CO)NC(=O)CNC1=O` [compound 1352] ({C18 diacid-γGlu-AEEA-AEEA-AEEA}-YHGAQKTGVSSGCFGLPLDRIGSLSGLGC-OH; disulfide 13-29), for which the solubility in data set [1] (setting [4]) came out at 7.73 mM (≈ 28.9 mg/mL). The “LagTime (h) at pH 6.5” value in data set [2] came to 23 h. Also, the “2-Week HMWP formation at pH 6.5 (%), % relative to total peak area” value in data set [3] is reported as 0.82%.

Turning to `CC[C@H](C)[C@@H]1NC(=O)[C@H](CCCNC(=N)N)NC(=O)[C@H](CC(=O)O)NC(=O)[C@H](CC(C)C)NC(=O)[C@@H]2CCCN2C(=O)[C@H](CC(C)C)NC(=O)CNC(=O)[C@H](Cc2ccccc2)NC(=O)[C@@H](NC(=O)CNC(=O)[C@H](CCC(N)=O)NC(=O)[C@H](CO)NC(=O)[C@H](CC(C)C)NC(=O)CNC(=O)[C@H](CCCCN)NC(=O)[C@H](CCCCN)NC(=O)[C@H](CCC(N)=O)NC(=O)[C@H](C)NC(=O)CNC(=O)[C@H](CCCCN)NC(=O)[C@H](Cc2ccc(O)cc2)NC(=O)COCCOCCNC(=O)COCCOCCNC(=O)COCCOCCNC(=O)COCCOCCNC(=O)CC[C@H](NC(=O)CC[C@H](NC(=O)CCCCCCCCCCCCCCCCC(=O)O)C(=O)O)C(=O)O)CSSC[C@@H](C(=O)O)NC(=O)CNC(=O)[C@H](CC(C)C)NC(=O)CNC(=O)[C@H](CO)NC(=O)[C@H](CC(C)C)NC(=O)[C@H](CO)NC(=O)CNC1=O` [compound 1478] ({C18 diacid-γGlu-γGlu-AEEA-AEEA-AEEA-AEEA}-YKGAQKKGLSQGCFGLPLDRIGSLSGLGC-OH; disulfide 13-29; C-terminus assumed), the solubility in data set [1] (setting [5]) was found to be 6.51 mM (≈ 26.6 mg/mL); in data set [1] (setting [4]) it was 2.18 mM (≈ 8.9 mg/mL). Also, the “LagTime (h) at pH 6.5” value in data set [2] stood at 45 h. For the same compound, the “LagTime (h) at pH 4.0” value in data set [2] (ThT, 37° C., shaking) is listed as 0.33 h. Besides, the “2-Week HMWP formation at pH 4.0 (%), % relative to total peak area” value in data set [3] (pH 4.0) is recorded as 1.98%.

As for `CC[C@H](C)[C@@H]1NC(=O)[C@H](CCCNC(=N)N)NC(=O)[C@H](CC(=O)O)NC(=O)[C@H](CC(C)C)NC(=O)[C@@H]2CCCN2C(=O)[C@H](CC(C)C)NC(=O)CNC(=O)[C@H](Cc2ccccc2)NC(=O)[C@@H](NC(=O)CNC(=O)[C@H](CO)NC(=O)[C@H](CO)NC(=O)[C@H](CC(C)C)NC(=O)CNC(=O)[C@H](CCCCN)NC(=O)[C@H](CCCCN)NC(=O)[C@H](CCC(N)=O)NC(=O)[C@H](C)NC(=O)CNC(=O)[C@H](Cc2c[nH]cn2)NC(=O)[C@H](CCC(=O)O)NC(=O)COCCOCCNC(=O)COCCOCCNC(=O)CC[C@H](NC(=O)CCCCCCCCCCCCCCCCC(=O)O)C(=O)O)CSSC[C@@H](C(=O)O)NC(=O)CNC(=O)[C@H](CC(C)C)NC(=O)CNC(=O)[C@H](CO)NC(=O)[C@H](CC(C)C)NC(=O)[C@H](CO)NC(=O)CNC1=O` [compound 1310] ({C18 diacid-γGlu-AEEA-AEEA}-EHGAQKKGLSSGCFGLPLDRIGSLSGLGC-OH; disulfide 13-29), the solubility in data set [1] (setting [4]) is 7.61 mM (≈ 27.4 mg/mL). Besides, the “LagTime (h) at pH 6.5” value in data set [2] was determined as 45 h. In data set [3], the “2-Week HMWP formation at pH 6.5 (%), % relative to total peak area” value is listed as 0.87%.

For `CC[C@H](C)[C@@H]1NC(=O)[C@H](CCCNC(=N)N)NC(=O)[C@H](CC(=O)O)NC(=O)[C@H](CC(C)C)NC(=O)[C@@H]2CCCN2C(=O)[C@H](CC(C)C)NC(=O)CNC(=O)[C@H](Cc2ccccc2)NC(=O)[C@@H](NC(=O)CNC(=O)[C@H](CCC(N)=O)NC(=O)[C@H](CO)NC(=O)[C@H](CC(C)C)NC(=O)CNC(=O)[C@H](CCCCN)NC(=O)[C@H](CCCCN)NC(=O)[C@H](CCC(N)=O)NC(=O)[C@H](C)NC(=O)CNC(=O)[C@H](CCCCN)NC(=O)[C@H](Cc2ccc(O)cc2)NC(=O)[C@H](CCCCN)NC(=O)[C@H](CCCNC(=N)N)NC(=O)[C@H](C)NC(=O)[C@H](CCC(N)=O)NC(=O)[C@@H]2CCCN2C(=O)[C@H](Cc2c[nH]cn2)NC(=O)[C@H](CCC(=O)O)NC(=O)[C@H](CCC(N)=O)NC(=O)COCCOCCNC(=O)COCCOCCNC(=O)CC[C@H](NC(=O)CC[C@H](NC(=O)CC[C@H](NC(=O)CC[C@H](NC(=O)CC[C@H](NC(=O)CC[C@H](NC(=O)CCCCCCCCCCCCCCCCC(=O)O)C(=O)O)C(=O)O)C(=O)O)C(=O)O)C(=O)O)C(=O)O)CSSC[C@@H](C(=O)O)NC(=O)CNC(=O)[C@H](CC(C)C)NC(=O)CNC(=O)[C@H](CO)NC(=O)[C@H](CC(C)C)NC(=O)[C@H](CO)NC(=O)CNC1=O` [compound 1402] ({C18 diacid-γGlu-γGlu-γGlu-γGlu-γGlu-γGlu-AEEA-AEEA}-QEHPQARKYKGAQKKGLSQGCFGLPLDRIGSLSGLGC-OH; disulfide 21-37), the solubility in data set [1] (setting [4]) stood at 10 mM (≈ 53 mg/mL). Also, the “LagTime (h) at pH 6.5” value in data set [2] is reported as 45 h. In data set [3], the “2-Week HMWP formation at pH 6.5 (%), % relative to total peak area” value was found to be 2.19%.

Take `CC[C@H](C)[C@@H]1NC(=O)[C@H](CCCNC(=N)N)NC(=O)[C@H](CC(=O)O)NC(=O)[C@H](CC(C)C)NC(=O)[C@@H]2CCCN2C(=O)[C@H](CC(C)C)NC(=O)CNC(=O)[C@H](Cc2ccccc2)NC(=O)[C@@H](NC(=O)CNC(=O)[C@H](CO)NC(=O)[C@H](CO)NC(=O)[C@H](CC(C)C)NC(=O)CNC(=O)[C@H](CCCCN)NC(=O)[C@H](CCCCN)NC(=O)[C@H](CCC(N)=O)NC(=O)[C@H](C)NC(=O)CNC(=O)[C@H](CCCCN)NC(=O)[C@H](Cc2ccc(O)cc2)NC(=O)[C@H](CCCCN)NC(=O)[C@H](CCCNC(=N)N)NC(=O)[C@H](C)NC(=O)[C@H](CCC(N)=O)NC(=O)[C@@H]2CCCN2C(=O)[C@H](Cc2c[nH]cn2)NC(=O)[C@H](CCC(=O)O)NC(=O)[C@H](CCC(N)=O)NC(=O)CC[C@H](NC(=O)CC[C@H](NC(=O)CC[C@H](NC(=O)CC[C@H](NC(=O)CC[C@H](NC(=O)CCCCCCCCCCCCCCCCC(=O)O)C(=O)O)C(=O)O)C(=O)O)C(=O)O)C(=O)O)CSSC[C@@H](C(=O)O)NC(=O)CNC(=O)[C@H](CC(C)C)NC(=O)CNC(=O)[C@H](CO)NC(=O)[C@H](CC(C)C)NC(=O)[C@H](CO)NC(=O)CNC1=O` [compound 9482] ({C18 diacid-γGlu-γGlu-γGlu-γGlu-γGlu}-QEHPQARKYKGAQKKGLSSGCFGLPLDRIGSLSGLGC-OH; disulfide 21-37): the solubility in data set [1] (setting [5]) was found to be 0.099 mM (≈ 0.478 mg/mL); in data set [1] (setting [4]) it was 5.32 mM (≈ 25.7 mg/mL). For the same compound, the “LagTime (h) at pH 6.5” value in data set [2] was determined as 45 h. The “2-Week HMWP formation at pH 6.5 (%), % relative to total peak area” value in data set [3] is on record as 1.96%.
